From ChEMBL document CHEMBL4507279, “Data for DCP probe BI-9627” (2021)
pKi: −log10 of the molar value.

What was measured:
[1] = biological target: Alpha-1D adrenergic receptor (Homo sapiens, UniProt P25100); assay: GPCRScan assay: inhibition of Alpha1D; design: radioligand conc. used [nm] 0.3 – 1.0, parental cells stable
[2] = biological target: Bone morphogenetic protein receptor type-1A (Homo sapiens) (UniProt P36894); details: Compound concentration 1000.0 nM
[3] = biological target: Serine/threonine-protein kinase BRSK2 (Homo sapiens) (UniProt Q8IWQ3); details: Compound concentration 1000.0 nM
[4] = biological target: Calcium/calmodulin-dependent protein kinase kinase 2 (Homo sapiens) (UniProt Q96RR4); details: Compound concentration 1000.0 nM
[5] = biological target: Cyclin-dependent kinase 4 (Homo sapiens) (UniProt P11802); details: Compound concentration 1000.0 nM
[6] = biological target: Cyclin-dependent kinase 7 (Homo sapiens) (UniProt P50613); details: Compound concentration 1000.0 nM
[7] = biological target: Cyclin-dependent kinase 8 (Homo sapiens) (UniProt P49336); details: Compound concentration 1000.0 nM
[8] = biological target: Serine/threonine-protein kinase Chk2 (Homo sapiens) (UniProt O96017); details: Compound concentration 1000.0 nM
[9] = biological target: Casein kinase I isoform gamma-3 (Homo sapiens) (UniProt Q9Y6M4); details: Compound concentration 1000.0 nM
Casein kinase I isoform gamma-3 (Homo sapiens), sequence (Q9Y6M4 whole entry, looked up, the tested form may be a part, canonical isoform): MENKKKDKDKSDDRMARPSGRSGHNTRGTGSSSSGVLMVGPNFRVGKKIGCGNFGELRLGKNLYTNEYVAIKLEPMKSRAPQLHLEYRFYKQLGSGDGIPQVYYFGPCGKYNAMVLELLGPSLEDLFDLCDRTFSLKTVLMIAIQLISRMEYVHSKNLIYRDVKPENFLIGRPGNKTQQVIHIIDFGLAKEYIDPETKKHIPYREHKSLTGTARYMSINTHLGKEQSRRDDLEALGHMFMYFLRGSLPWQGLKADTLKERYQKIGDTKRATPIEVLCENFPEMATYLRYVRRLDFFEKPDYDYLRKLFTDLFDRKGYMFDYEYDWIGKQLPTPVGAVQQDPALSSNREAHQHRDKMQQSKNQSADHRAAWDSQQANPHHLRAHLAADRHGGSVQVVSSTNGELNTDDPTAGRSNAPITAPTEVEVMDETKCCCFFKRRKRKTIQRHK

[10] = biological target: Epithelial discoidin domain-containing receptor 1 (Homo sapiens) (UniProt Q08345); details: Compound concentration 1000.0 nM
[11] = biological target: Serine/threonine-protein kinase MRCK gamma (Homo sapiens) (UniProt Q6DT37); details: Compound concentration 1000.0 nM
[12] = system: Epidermal growth factor receptor (Homo sapiens), P00533 [T790M]; details: Compound concentration 1000.0 nM
[13] = biological target: Ephrin type-A receptor 4 (Homo sapiens) (UniProt P54764); details: Compound concentration 1000.0 nM
[14] = biological target: Ephrin type-B receptor 6 (Homo sapiens) (UniProt O15197); details: Compound concentration 1000.0 nM
[15] = biological target: Serine/threonine-protein kinase/endoribonuclease IRE1 (Homo sapiens) (UniProt O75460); details: Compound concentration 1000.0 nM
Serine/threonine-protein kinase/endoribonuclease IRE1 (Homo sapiens), sequence (O75460 19-977 limits assumed): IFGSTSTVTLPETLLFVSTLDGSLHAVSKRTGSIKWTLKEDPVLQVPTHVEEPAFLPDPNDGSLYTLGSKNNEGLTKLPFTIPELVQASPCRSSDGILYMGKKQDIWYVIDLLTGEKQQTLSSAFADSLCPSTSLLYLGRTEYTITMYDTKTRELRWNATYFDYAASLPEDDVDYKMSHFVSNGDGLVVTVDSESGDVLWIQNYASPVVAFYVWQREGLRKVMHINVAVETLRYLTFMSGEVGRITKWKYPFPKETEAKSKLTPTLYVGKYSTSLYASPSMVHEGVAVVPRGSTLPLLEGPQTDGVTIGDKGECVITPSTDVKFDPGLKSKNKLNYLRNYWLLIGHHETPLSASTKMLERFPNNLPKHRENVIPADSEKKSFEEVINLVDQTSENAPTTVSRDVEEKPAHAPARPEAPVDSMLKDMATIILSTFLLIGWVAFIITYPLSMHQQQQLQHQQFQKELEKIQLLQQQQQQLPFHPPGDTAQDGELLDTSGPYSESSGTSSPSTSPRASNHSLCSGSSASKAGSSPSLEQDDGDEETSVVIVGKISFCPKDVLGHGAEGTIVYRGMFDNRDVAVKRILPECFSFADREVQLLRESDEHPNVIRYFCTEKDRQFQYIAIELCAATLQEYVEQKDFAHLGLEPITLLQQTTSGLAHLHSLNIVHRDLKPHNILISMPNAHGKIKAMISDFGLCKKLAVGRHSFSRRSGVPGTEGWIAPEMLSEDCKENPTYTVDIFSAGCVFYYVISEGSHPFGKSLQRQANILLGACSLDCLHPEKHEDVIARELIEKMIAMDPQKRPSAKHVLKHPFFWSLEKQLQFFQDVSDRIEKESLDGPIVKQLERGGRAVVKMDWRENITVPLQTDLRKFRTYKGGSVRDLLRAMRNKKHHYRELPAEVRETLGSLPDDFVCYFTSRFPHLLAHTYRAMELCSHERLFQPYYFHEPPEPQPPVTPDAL

[16] = biological target: Tyrosine-protein kinase FRK (Homo sapiens) (UniProt P42685); details: Compound concentration 1000.0 nM
[17] = biological target: Rhodopsin kinase GRK7 (Homo sapiens) (UniProt Q8WTQ7); details: Compound concentration 1000.0 nM
[18] = biological target: Glycogen synthase kinase-3 alpha (Homo sapiens) (UniProt P49840); details: Compound concentration 1000.0 nM
[19] = biological target: Glycogen synthase kinase-3 beta (Homo sapiens) (UniProt P49841); details: Compound concentration 1000.0 nM
Glycogen synthase kinase-3 beta (Homo sapiens), sequence (P49841 whole entry, looked up): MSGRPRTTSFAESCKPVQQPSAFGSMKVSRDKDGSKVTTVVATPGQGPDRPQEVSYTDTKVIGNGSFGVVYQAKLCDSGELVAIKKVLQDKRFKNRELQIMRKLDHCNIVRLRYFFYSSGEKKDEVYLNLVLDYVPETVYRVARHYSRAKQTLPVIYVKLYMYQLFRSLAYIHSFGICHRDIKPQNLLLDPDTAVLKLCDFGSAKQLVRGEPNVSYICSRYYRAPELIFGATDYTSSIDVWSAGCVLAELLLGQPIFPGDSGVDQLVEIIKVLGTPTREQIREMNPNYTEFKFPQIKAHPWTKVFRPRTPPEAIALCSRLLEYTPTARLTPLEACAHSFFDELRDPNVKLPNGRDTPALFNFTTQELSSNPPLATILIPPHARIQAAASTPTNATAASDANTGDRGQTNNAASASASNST

[20] = biological target: Serine/threonine-protein kinase haspin (Homo sapiens) (UniProt Q8TF76); details: Compound concentration 1000.0 nM
[21] = biological target: Hormonally up-regulated neu tumor-associated kinase (Homo sapiens) (UniProt P57058); details: Compound concentration 1000.0 nM
[22] = biological target: Inhibitor of nuclear factor kappa-B kinase subunit epsilon (Homo sapiens) (UniProt Q14164); details: Compound concentration 1000.0 nM
[23] = biological target: Interleukin-1 receptor-associated kinase 3 (Homo sapiens) (UniProt Q9Y616); details: Compound concentration 1000.0 nM
[24] = biological target: Tyrosine-protein kinase ITK/TSK (Homo sapiens) (UniProt Q08881); details: Compound concentration 1000.0 nM
[25] = biological target: Mitogen-activated protein kinase 10 (Homo sapiens) (UniProt P53779); details: Compound concentration 1000.0 nM
[26] = system: Leucine-rich repeat serine/threonine-protein kinase 2 (Homo sapiens), Q5S007 [G2019S]; details: Compound concentration 1000.0 nM
[27] = biological target: Mitogen-activated protein kinase kinase kinase kinase 2 (Homo sapiens) (UniProt Q12851); details: Compound concentration 1000.0 nM
[28] = biological target: Serine/threonine-protein kinase 24 (Homo sapiens) (UniProt Q9Y6E0); details: Compound concentration 1000.0 nM
Serine/threonine-protein kinase 24 (Homo sapiens), sequence (Q9Y6E0 whole entry, looked up): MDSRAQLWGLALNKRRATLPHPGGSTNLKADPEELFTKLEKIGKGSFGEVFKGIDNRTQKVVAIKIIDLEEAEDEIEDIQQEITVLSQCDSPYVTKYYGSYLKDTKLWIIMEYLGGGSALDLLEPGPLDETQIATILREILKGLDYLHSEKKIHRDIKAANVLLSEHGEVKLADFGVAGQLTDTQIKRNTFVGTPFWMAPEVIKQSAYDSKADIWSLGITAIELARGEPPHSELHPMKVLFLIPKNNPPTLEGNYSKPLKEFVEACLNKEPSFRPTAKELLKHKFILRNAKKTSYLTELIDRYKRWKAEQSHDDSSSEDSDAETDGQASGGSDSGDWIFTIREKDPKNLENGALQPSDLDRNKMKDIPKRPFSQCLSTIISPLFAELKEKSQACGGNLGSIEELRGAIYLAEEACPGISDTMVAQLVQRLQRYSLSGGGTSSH

[29] = biological target: Muscle, skeletal receptor tyrosine-protein kinase (Homo sapiens) (UniProt O15146); details: Compound concentration 1000.0 nM
[30] = biological target: Serine/threonine-protein kinase NLK (Homo sapiens) (UniProt Q9UBE8); details: Compound concentration 1000.0 nM
Serine/threonine-protein kinase NLK (Homo sapiens), sequence (Q9UBE8 whole entry): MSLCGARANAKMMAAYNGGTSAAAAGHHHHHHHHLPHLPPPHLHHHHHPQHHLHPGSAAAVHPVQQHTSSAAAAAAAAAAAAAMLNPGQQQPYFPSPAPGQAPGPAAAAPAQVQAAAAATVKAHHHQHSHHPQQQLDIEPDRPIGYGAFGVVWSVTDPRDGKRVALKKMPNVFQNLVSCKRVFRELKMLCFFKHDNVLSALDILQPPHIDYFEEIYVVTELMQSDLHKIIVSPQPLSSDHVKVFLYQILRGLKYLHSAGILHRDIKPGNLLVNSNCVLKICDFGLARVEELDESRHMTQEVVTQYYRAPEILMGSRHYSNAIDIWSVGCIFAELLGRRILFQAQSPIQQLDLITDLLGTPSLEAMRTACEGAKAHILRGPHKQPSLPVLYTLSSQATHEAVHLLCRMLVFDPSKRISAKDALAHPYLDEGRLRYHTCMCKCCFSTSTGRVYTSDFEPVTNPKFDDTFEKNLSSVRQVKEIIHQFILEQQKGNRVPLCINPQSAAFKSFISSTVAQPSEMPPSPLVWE

[31] = biological target: Serine/threonine-protein kinase PAK 1 (Homo sapiens) (UniProt Q13153); details: Compound concentration 1000.0 nM
Serine/threonine-protein kinase PAK 1 (Homo sapiens), sequence (Q13153 whole entry): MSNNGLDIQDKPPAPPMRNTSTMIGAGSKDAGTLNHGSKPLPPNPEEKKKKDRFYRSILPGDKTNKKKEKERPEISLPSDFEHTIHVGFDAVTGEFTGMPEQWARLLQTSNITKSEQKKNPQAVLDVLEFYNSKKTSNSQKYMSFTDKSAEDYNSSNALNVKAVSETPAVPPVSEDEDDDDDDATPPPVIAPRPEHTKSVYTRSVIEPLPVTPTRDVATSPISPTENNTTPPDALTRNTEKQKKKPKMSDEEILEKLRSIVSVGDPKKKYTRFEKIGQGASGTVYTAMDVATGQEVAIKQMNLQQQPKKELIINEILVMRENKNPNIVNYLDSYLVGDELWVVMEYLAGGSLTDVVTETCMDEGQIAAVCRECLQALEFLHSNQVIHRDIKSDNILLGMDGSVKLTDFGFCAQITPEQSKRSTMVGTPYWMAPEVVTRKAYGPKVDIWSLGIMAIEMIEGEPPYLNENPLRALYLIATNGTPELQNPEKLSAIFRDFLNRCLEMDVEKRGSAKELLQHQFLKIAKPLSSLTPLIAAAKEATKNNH

[32] = biological target: Cyclin-dependent kinase 17 (Homo sapiens) (UniProt Q00537); details: Compound concentration 1000.0 nM
[33] = biological target: Membrane-associated tyrosine- and threonine-specific cdc2-inhibitory kinase (Homo sapiens) (UniProt Q99640); details: Compound concentration 1000.0 nM
[34] = system: Proto-oncogene tyrosine-protein kinase receptor Ret (Homo sapiens), P07949 [V804M]; details: Compound concentration 1000.0 nM
[35] = biological target: Serine/threonine-protein kinase Sgk1 (Homo sapiens) (UniProt O00141); details: Compound concentration 1000.0 nM
[36] = biological target: Serine/threonine-protein kinase SIK2 (Homo sapiens) (UniProt Q9H0K1); details: Compound concentration 1000.0 nM
Serine/threonine-protein kinase SIK2 (Homo sapiens), sequence (Q9H0K1 whole entry, looked up): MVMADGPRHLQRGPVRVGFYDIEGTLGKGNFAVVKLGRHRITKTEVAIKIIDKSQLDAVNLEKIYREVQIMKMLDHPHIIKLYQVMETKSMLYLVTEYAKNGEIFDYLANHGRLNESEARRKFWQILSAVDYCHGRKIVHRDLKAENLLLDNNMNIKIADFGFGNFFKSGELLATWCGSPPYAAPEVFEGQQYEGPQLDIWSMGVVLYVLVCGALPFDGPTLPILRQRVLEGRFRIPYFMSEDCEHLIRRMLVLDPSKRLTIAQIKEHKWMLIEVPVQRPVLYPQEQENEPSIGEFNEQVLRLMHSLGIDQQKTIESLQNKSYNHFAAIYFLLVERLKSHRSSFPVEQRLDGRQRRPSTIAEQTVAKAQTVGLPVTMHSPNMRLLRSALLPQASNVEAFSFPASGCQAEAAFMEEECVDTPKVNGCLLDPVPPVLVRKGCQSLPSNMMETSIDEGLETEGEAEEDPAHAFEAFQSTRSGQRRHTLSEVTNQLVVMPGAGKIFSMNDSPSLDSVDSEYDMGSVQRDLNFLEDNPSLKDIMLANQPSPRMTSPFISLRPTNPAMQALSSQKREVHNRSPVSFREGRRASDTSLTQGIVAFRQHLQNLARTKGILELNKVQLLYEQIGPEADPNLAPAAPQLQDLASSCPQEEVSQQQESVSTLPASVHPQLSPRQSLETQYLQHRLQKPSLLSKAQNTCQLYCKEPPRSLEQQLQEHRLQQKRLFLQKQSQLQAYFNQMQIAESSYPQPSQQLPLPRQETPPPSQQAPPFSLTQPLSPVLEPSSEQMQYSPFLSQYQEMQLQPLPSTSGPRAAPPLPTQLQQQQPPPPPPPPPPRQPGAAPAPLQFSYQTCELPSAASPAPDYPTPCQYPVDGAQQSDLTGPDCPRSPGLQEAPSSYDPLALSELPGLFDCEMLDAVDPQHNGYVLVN

[37] = biological target: Serine/threonine-protein kinase TBK1 (Homo sapiens) (UniProt Q9UHD2); details: Compound concentration 1000.0 nM
Serine/threonine-protein kinase TBK1 (Homo sapiens), sequence (Q9UHD2 whole entry): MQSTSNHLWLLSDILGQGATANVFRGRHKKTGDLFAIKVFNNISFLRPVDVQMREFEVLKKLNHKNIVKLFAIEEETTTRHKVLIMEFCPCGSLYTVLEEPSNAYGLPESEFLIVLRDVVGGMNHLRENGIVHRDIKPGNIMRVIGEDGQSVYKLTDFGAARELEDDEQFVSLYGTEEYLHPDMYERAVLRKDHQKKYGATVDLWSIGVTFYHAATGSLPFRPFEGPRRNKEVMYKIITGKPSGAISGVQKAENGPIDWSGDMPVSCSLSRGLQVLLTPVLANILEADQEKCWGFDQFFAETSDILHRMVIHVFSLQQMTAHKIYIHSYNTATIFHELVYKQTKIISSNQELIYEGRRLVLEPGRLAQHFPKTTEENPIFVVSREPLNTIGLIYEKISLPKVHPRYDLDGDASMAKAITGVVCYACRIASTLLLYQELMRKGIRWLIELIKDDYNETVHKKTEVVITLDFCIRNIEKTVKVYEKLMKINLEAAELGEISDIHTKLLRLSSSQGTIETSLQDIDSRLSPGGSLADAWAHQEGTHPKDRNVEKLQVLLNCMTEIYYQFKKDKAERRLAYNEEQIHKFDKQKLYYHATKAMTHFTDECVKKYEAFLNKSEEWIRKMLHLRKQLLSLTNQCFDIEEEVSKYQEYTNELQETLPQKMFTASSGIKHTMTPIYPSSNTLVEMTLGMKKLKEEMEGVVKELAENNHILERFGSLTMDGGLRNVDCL

[38] = biological target: Tyrosine-protein kinase receptor TYRO3 (Homo sapiens) (UniProt Q06418); details: Compound concentration 1000.0 nM
[39] = biological target: Serine/threonine-protein kinase ULK2 (Homo sapiens) (UniProt Q8IYT8); details: Compound concentration 1000.0 nM
[40] = biological target: Serine/threonine-protein kinase WNK1 (Homo sapiens) (UniProt Q9H4A3); details: Compound concentration 1000.0 nM
[41] = biological target: Tyrosine-protein kinase ZAP-70 (Homo sapiens) (UniProt P43403); details: Compound concentration 1000.0 nM
[42] = biological target: 5-hydroxytryptamine receptor 1B (Homo sapiens) (UniProt P28222); details: Compound concentration 10.0 uM
[43] = biological target: 5-hydroxytryptamine receptor 2B (Homo sapiens) (UniProt P41595); details: Compound concentration 10.0 uM
[44] = biological target: Alpha-2C adrenergic receptor (Homo sapiens) (UniProt P18825); details: Compound concentration 10.0 uM
[45] = biological target: Beta-3 adrenergic receptor (Homo sapiens) (UniProt P13945); details: Compound concentration 10.0 uM

Which results are given for `CC(=O)N1CCC(c2ccc(C(=O)NC3=NCCN3)cc2C(F)(F)F)CC1` [BI 0054]?
pKi [1]: 5.00; residual activity [2]: 100%; residual activity [3]: 100%; residual activity [4]: 100%; residual activity [5]: 98%; residual activity [6]: 89%; residual activity [7]: 100%; residual activity [8]: 100%; residual activity [9]: 100%; residual activity [10]: 100%; residual activity [11]: 93%; residual activity [12]: 100%; residual activity [13]: 100%; residual activity [14]: 100%; residual activity [15]: 60%; residual activity [16]: 97%; residual activity [17]: 87%; residual activity [18]: 78%; residual activity [19]: 88%; residual activity [20]: 78%; residual activity [21]: 100%; residual activity [22]: 71%; residual activity [23]: 100%; residual activity [24]: 91%; residual activity [25]: 100%; residual activity [26]: 100%; residual activity [27]: 100%; residual activity [28]: 97%; residual activity [29]: 90%; residual activity [30]: 100%; residual activity [31]: 98%; residual activity [32]: 89%; residual activity [33]: 100%; residual activity [34]: 100%; residual activity [35]: 100%; residual activity [36]: 100%; residual activity [37]: 98%; residual activity [38]: 89%; residual activity [39]: 82%; residual activity [40]: 99%; residual activity [41]: 97%; inhibition [42]: 37.8%; inhibition [43]: -2.75%; inhibition [44]: 16.3%; inhibition [45]: 8.52%

Which results are given for `CC(=O)N1CCC(c2ccc(C(=O)NC(=N)N)cc2C(F)(F)F)CC1` [BI 9627]?
pKi [1]: 5.00; residual activity [2]: 100%; residual activity [3]: 100%; residual activity [4]: 100%; residual activity [5]: 100%; residual activity [6]: 86%; residual activity [7]: 100%; residual activity [8]: 100%; residual activity [9]: 100%; residual activity [10]: 83%; residual activity [11]: 92%; residual activity [12]: 100%; residual activity [13]: 100%; residual activity [14]: 100%; residual activity [15]: 100%; residual activity [16]: 100%; residual activity [17]: 97%; residual activity [18]: 97%; residual activity [19]: 85%; residual activity [20]: 100%; residual activity [21]: 100%; residual activity [22]: 70%; residual activity [23]: 99%; residual activity [24]: 100%; residual activity [25]: 100%; residual activity [26]: 100%; residual activity [27]: 100%; residual activity [28]: 100%; residual activity [29]: 100%; residual activity [30]: 100%; residual activity [31]: 100%; residual activity [32]: 100%; residual activity [33]: 100%; residual activity [34]: 100%; residual activity [35]: 100%; residual activity [36]: 100%; residual activity [37]: 100%; residual activity [38]: 100%; residual activity [39]: 100%; residual activity [40]: 100%; residual activity [41]: 100%; inhibition [42]: 14.6%; inhibition [43]: -8.79%; inhibition [44]: 9.12%; inhibition [45]: 5.47%
